Test results published in ChEMBL document CHEMBL4330178 (ACS Med Chem Lett, 2019).

What was measured:
[1] = target: von Hippel-Lindau disease tumor suppressor/Mitogen-activated protein kinase 14 (Homo sapiens, UniProt P40337+Q16539); test: Protac activity at E3 ubiquitin ligase/p38alpha in human MDA-MB-231 cells assessed as p38alpha degradation after 4 hrs by ELISA; format: cell-based
[2] = target: von Hippel-Lindau disease tumor suppressor/Mitogen-activated protein kinase 14 (Homo sapiens) (UniProt Q16539+P40337); test: Protac activity at E3 ubiquitin ligase/p38alpha in human MDA-MB-231 cells assessed as p38alpha degradation after 4 hrs by ELISA relative to control; format: cell-based
Chain of von Hippel-Lindau disease tumor suppressor/Mitogen-activated protein kinase 14 (Homo sapiens) (P40337 whole entry partner): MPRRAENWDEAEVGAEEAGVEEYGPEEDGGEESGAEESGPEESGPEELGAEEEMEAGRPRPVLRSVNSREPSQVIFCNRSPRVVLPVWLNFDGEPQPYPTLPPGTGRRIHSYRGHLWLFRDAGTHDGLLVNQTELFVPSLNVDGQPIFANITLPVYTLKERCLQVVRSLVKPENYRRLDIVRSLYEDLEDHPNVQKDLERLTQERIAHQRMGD
Chain of von Hippel-Lindau disease tumor suppressor/Mitogen-activated protein kinase 14 (Homo sapiens) (Q16539 2-360 limits assumed): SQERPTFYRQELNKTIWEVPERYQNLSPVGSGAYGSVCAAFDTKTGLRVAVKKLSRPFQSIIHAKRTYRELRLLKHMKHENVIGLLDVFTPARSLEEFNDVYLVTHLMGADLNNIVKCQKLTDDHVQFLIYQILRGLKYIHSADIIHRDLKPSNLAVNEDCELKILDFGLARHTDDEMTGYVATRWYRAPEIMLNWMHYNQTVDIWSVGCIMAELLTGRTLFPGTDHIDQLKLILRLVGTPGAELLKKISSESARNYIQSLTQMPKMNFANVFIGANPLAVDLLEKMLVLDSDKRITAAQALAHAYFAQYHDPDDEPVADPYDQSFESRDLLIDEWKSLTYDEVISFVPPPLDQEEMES

Chain of von Hippel-Lindau disease tumor suppressor/Mitogen-activated protein kinase 14 (Q16539 whole entry): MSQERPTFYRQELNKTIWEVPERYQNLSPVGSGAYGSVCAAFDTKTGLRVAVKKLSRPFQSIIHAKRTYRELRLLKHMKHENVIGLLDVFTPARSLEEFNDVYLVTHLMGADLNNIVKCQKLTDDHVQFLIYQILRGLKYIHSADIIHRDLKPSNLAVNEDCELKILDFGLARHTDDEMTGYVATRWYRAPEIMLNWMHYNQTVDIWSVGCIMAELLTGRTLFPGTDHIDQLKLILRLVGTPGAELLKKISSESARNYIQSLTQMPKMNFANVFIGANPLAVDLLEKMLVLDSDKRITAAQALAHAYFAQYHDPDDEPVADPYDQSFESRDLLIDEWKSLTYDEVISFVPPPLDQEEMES
Chain of von Hippel-Lindau disease tumor suppressor/Mitogen-activated protein kinase 14 (P40337 whole entry): as the sequence (P40337 whole entry partner) above

| Compound | IC50 [1] [nM] | Emax [2] [%] |
| --- | --- | --- |
| COc1cc2c(Oc3ccc(NC(=O)C4(C(=O)Nc5ccc(F)cc5)CC4)cc3F)ccnc2cc1OCCCOCCOCCC(=O)N[C@H](C(=O)N1C[C@H](O)C[C@H]1C(=O)NCc1ccc(-c2scnc2C)cc1)C(C)(C)C | 18.8 | 91 |
| COc1cc2c(Oc3ccc(NC(=O)C4(C(=O)Nc5ccc(F)cc5)CC4)cc3F)ccnc2cc1OCCOCCOCCC(=O)N[C@H](C(=O)N1C[C@H](O)C[C@H]1C(=O)NCc1ccc(-c2scnc2C)cc1)C(C)(C)C | 40.1 | 81 |
| COc1cc2c(Oc3ccc(NC(=O)C4(C(=O)Nc5ccc(F)cc5)CC4)cc3F)ccnc2cc1OCCCOCCCOCCC(=O)N[C@H](C(=O)N1C[C@H](O)C[C@H]1C(=O)NCc1ccc(-c2scnc2C)cc1)C(C)(C)C | 50 | 95 |
